Assays:
MD-2 = molecular target: T1, MD-2 (Homo sapiens, UniProt Q9Y6Y9); assay: SPR direct binding to immobilized MD-2 (Biacore T200); details: MD-2 immobilized on CM5 chip
T1 construct: purchased R&D Systems 1787-MD
T1 sequence (Q9Y6Y9 19-160): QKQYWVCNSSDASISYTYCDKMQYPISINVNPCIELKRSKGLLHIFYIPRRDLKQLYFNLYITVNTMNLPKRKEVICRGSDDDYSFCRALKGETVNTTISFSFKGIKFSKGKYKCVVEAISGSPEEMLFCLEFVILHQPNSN
Experimental: (§1) Biacore T200 (GE Healthcare, USA) was used for real-time binding interaction studies. […] For binding analyses, CM5 series chips (GE Healthcare) were activated and the reference flow-cell was blocked by 1 M ethanolamine (pH = 8.5). The ligand protein MD-2 dilution (10 ug/mL in 10 mM Acetate buffer pH 5) or HMGB1 (20 ug/mL in 10 mM acetate buffer pH = 4.5) or TLR4/MD2 complex (10 ug/mL in 10 mM acetate buffer pH 4.5) were subjected to the sample flow-cell at the flow rate of 10 uL/min until the surface Plasmon resonance reached 1000–2000 RU. Analytes (Folic acid analogues) diluted into 5 different concentrations were sequentially injected at a flow rate of 30uL/min for 60s or 120s (TLR4/MD-2). The dissociation time was set for 1 minute or 2 minutes (TLR4/MD-2). The equilibrium dissociation constant (KD) was obtained to evaluate the binding affinity by using the BIAEvaluation 2.0 software (GE Healthcare) supposing a 1:1 binding ratio. At least 3 independent experiments were performed.

TLR4/MD-2 complex = molecular target: T2, TLR4/MD-2 complex (Homo sapiens, UniProt O00206+Q9Y6Y9); assay: SPR direct binding to immobilized TLR4/MD-2 complex; details: TLR4/MD-2 complex immobilized
T2 construct: purchased R&D Systems 3146-TM-050
T2 sequence (O00206 24-631 limits assumed): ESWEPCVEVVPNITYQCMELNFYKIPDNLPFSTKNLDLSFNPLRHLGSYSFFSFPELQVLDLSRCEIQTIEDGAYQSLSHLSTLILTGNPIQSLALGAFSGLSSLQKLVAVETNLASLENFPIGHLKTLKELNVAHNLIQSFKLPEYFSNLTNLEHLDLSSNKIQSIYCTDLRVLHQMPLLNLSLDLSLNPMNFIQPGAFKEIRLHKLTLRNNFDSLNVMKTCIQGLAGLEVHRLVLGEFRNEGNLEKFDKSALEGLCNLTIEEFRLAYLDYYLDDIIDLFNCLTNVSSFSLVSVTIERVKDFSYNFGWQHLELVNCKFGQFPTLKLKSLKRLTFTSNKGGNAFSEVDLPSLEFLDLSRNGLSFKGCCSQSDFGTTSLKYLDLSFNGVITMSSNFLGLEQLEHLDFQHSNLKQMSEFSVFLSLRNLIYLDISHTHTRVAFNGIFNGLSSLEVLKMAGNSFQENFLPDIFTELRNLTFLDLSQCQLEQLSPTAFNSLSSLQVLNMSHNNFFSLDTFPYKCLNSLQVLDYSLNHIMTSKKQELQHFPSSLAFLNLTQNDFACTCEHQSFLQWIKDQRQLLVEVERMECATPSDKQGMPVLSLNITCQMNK
T2 sequence (Q9Y6Y9 17-160 limits assumed): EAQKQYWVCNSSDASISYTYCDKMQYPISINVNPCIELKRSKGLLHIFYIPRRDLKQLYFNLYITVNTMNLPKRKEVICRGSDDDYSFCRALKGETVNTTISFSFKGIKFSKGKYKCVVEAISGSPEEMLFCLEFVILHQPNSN
Experimental: Biacore T200 (GE Healthcare, USA) was used for real-time binding interaction studies. Recombinant human TLR4/MD2 (R&D 3146-TM-050) complex protein and MD2 (R&D 1787-MD) protein were purchased from R&D Systems (Minneapolis, USA). For binding analyses, CM5 series chips (GE Healthcare) were activated and the reference flow-cell was blocked by 1 M ethanolamine (pH = 8.5). The ligand protein MD-2 dilution (10 ug/mL in 10 mM Acetate buffer pH 5) or HMGB1 (20 ug/mL in 10 mM acetate buffer pH = 4.5) or TLR4/MD2 complex (10 ug/mL in 10 mM acetate buffer pH 4.5) were subjected to the sample flow-cell at the flow rate of 10 uL/min until the surface Plasmon resonance reached 1000–2000 RU. Analytes (Folic acid analogues) diluted into 5 different concentrations were sequentially injected at a flow rate of 30uL/min for 60s or 120s (TLR4/MD-2). The dissociation time was set for 1 minute or 2 minutes (TLR4/MD-2). The equilibrium dissociation constant (KD) was obtained to evaluate the binding affinity by using the BIAEvaluation 2.0 software (GE Healthcare) supposing a 1:1 binding ratio. At least 3 independent experiments were performed.

HMGB1 = assay: SPR direct binding to immobilized HMGB1
Experimental: as §1

[1] = Stability of compound noted for the SPR experiment; assay type: physicochemical; details: excluded from the SPR experiment

Row | Kd (MD-2; 1:1 binding) | SMILES | Kd (MD-2) | other results
1 | 1.87 µM | C#CCC(Cc1cnc2nc(N)nc(N)c2n1)c1ccc(C(=O)N[C@@H](CCC(=O)O)C(=O)O)cc1 (stereo partly drawn) [Pralatrexate, pralatrexate] |  | 
2 | 2.39 µM | Nc1nc(=O)c2nc(CNc3ccc(C(=O)N[C@@H](CCC(=O)O)C(=O)O)cc3)cnc2[nH]1 [Folic acid, folic acid] |  | Kd (TLR4/MD-2 complex): 0.537 µM; binding to MD-2 (in words) (MD-2): moderate binding
3 |  | CN(Cc1cnc2nc(N)nc(N)c2n1)c1ccc(C(=O)N[C@@H](CCC(=O)O)C(=O)O)cc1 [Methotrexate, methotrexate] | 0.214 µM | binding to HMGB1 (HMGB1): no binding
4 |  | Nc1nc(N)c2nc(CNc3ccc(C(=O)N[C@@H](CCC(=O)O)C(=O)O)cc3)cnc2n1 [Aminopterin, aminopterin] | 0.301 µM | 
5 |  | Nc1nc(=O)c2c([nH]1)NCC(CNc1ccc(C(=O)NC(CCC(=O)O)C(=O)O)cc1)N2 (stereo not drawn) [Tetrahydrofolic acid, tetrahydrofolic acid] |  | stability [1]: decomposition over time
6 | 15 µM | Nc1nc2c(c(=O)[nH]1)N(C=O)C(CNc1ccc(C(=O)N[C@@H](CCC(=O)O)C(=O)O)cc1)CN2 (stereo partly drawn) [Leucovorin, leucovorin] |  | 

From paper PMC5814057, “Folic acid derived-P5779 mimetics regulate DAMP-mediated inflammation through disruption of HMGB1:TLR4:MD-2 axes” (PLoS ONE, 2018)
